Earlier results on two compounds are cited in article PMC12162873, “Modulating phosphatase DUSP22 with BML-260 ameliorates skeletal muscle wasting via Akt independent JNK-FOXO3a repression” (EMBO Molecular Medicine, 2025).

Where only a bound is given, the exact number is not on record here.

Data set [1] has as its system aldose reductase. Also on record: method as in Ramirez and Borja, 2008. As to conditions: drug for diabetic neuropathy; ref Ramirez and Borja, 2008; cited from earlier work.
In data set [2] the test system is JNK. Set-up: method as in ref [19] Bennett et al, 2001. As to conditions: ref [19] Bennett et al, 2001; cited from earlier work.

Consider `CC(/C=C1\SC(=S)N(CC(=O)O)C1=O)=C\c1ccccc1` [Epalrestat], for which the safety and tolerability result in data set [1] is “safe, well-tolerated”.

Turning to `Oc1c2ccccc2c2c3c(cccc13)N=N2` [SP600125], the “selectivity versus a range of kinases and enzymes tested” value in data set [2] is > 20 -fold.
